Data on two molecules can be found in US7615533B2, “TPO peptide compounds for treatment of anemia” (Janssen Pharmaceutica N.V., priority 2004, dated 2009).

Entries after “also recorded” stand apart in the source; their conditions may differ. Non-standard residues stand in square brackets, D forms with d. No end group written: not given here. 2Nal = N[C@@H](Cc1ccc2ccccc2c1)C(=O)O; Sar = CNCC(=O)O

Series [1] deals with carboplatin treated mice. Description: Example 1: increasing doses one day after carboplatin, anemia in mice. The format is in vivo, BALB/c mouse. As to the method: (§1) The effects of PEGylated TPO Compound No. 1 on mice treated with carboplatin were observed. For all examples herein, a 10 mg/ml stock solution of PEGylated TPO Compound No. 1 was prepared in sterile saline. For mixing, the preparation was placed on a gyratory shaker for 15 mm. at 200 rpm. This method was used to dissolve PEGylated TPO Compound No. 1 without foaming. The stock was filtered using a GV Millex (0.22 μm) filter. Dosing solutions were then prepared from this stock using sterile saline. The stock and dosing solutions were prepared fresh on the day of use.
The effect of PEGylated TPO Compound No. 1 on the duration and severity of anemia following treatment of mice with carboplatin as determined by changes in hemoglobin levels, red blood cell count and hematocrit, was observed. For this study, increasing amounts of PEGylated TPO Compound No. 1 were administered to mice one day following a carboplatin dose to characterize a possible dose-dependent effect on various red blood cell parameters.
(§2) The groups of mice were treated with either carboplatin or vehicle (Phosphate Buffered Saline, PBS) by intraperitoneal administration on Days −2 and −1 as delineated below. The optimal dose of carboplatin used to induce thrombocytopenia in the BALB/c mouse strain was previously determined to be a fractionated total dose of 120 mg/kg given as two consecutive daily injections (i.e., 2×60 mg/kg). One day following the second dose of carboplatin, groups of mice were treated with PEGylated TPO Compound No. 1 or vehicle (sterile saline, SS, preservative-free 0.90% sodium chloride) by IV (bolus) injection as delineated in Table 1. The dose was administered on a per-weight basis (100 μl/10 g body weight).
On Days 5, 7, 9 and 11, five mice in each test group were weighed and then euthanised using CO2-asphyxiation and exsanguinations via cardiac puncture. The blood samples were transferred to separate EDTA (lavender-top) microcontainers for hematologic evaluation. Groups of control mice (5) were processed on Days 5 and 11. The data are presented graphically as group means +SEM.

Series [2] has as its system carboplatin treated mice. Description: Example 2: dosing before and/or after carboplatin, hematological parameters in mice. The format is in vivo, BALB/c mouse. As to the method: as §1
The possibility that PEGylated TPO Compound No. 1 may sensitize bone marrow hematopoietic stem cells of mice to the toxic effects of carboplatin treatment was examined. For this study, a dose of PEGylated TPO Compound No. 1 was administered to the mice seven days prior to the carboplatin dose or immediately after carboplatin treatment. An additional group was treated with PEGylated TPO Compound No. 1 both prior to and after carboplatin administration. The effect of these dosing regimens on hematological parameters was also observed.
The groups of mice were treated with either carboplatin or vehicle (Phosphate Buffered Saline, PBS) by ip administration on Days 7 and 8 as delineated below. The optimal dose of carboplatin used to induce thrombocytopenia in the BALB/c mouse strain was previously determined to be a fractionated total dose of 120 mg/kg given as two consecutive daily injections (i.e., 2×60 mg/kg). Seven days prior to the first carboplatin dose or one (1) hour after the second dose of carboplatin, groups of mice were treated with PEGylated TPO Compound No. 1 (300 μg/kg) or vehicle (sterile saline, SS, preservative-free 0.9% sodium chloride) by IV (bolus) injection as delineated in Table 2. An additional group was treated with PEGylated TPO Compound No. 1 both before (Day 0) and after (Day 8, t=1 h) the carboplatin dose. All dosing was performed on a per-weight basis (100 μl/10 g body weight).
On Days 14, 18, 22 and 26, five mice in each test group were weighed and then euthanised using CO2-asphyxiation and exsanguination via cardiac puncture. The blood samples were transferred to separate EDTA (lavender-top) microcontainers for hematological evaluation. Groups of control mice (5) were processed on Days 14 and 26. The data are presented graphically as group means +SEM.

The next series concerns carboplatin-treated mice. Kind of series: Example 4: lower doses, survival of erythrocyte lineages in carboplatin-treated mice. The format is in vivo, BALB/c mouse. How it is done: as §1
The ability of PEGylated TPO Compound No. 1 to function as a survival factor for megakaryocyte and erythrocyte lineages in carboplatin-treated mice as determined by changes in hematological parameters was observed. […] In this study, the effect of lower doses of PEGylated TPO Compound No. 1 (i.e., 30, 100 and 300 μg/kg) on the survival of erythrocyte lineages was examined to characterize the dose-response for this effect.
as §2, with “ip” for “intraperitoneal”, “−1” for “−2”, “0” for “−1”, “Approximately one hour” for “One day”, “0.9%” for “0.90%”, “4.” for “1.”
On Days 6, 8 and 12, five mice in each test group were weighed and then euthanised using CO2-asphyxiation and exsanguinations via cardiac puncture. The blood samples were transferred to separate EDTA (lavender-top) microcontainers for hematologic evaluation. Groups of control mice (5) were processed on Days 6 & 12.

In series [3] the test system is carboplatin treated mice. Kind of series: Example 6: mechanistic study, increasing carboplatin, hematology and brain fibrinogen/fibrin histology. The format is in vivo, mouse. How it is done: as §1
For mechanistic studies, groups of mice were treated with vehicle or increasing amounts of carboplatin (i.e., 60, 70 or 80 mg/kg) for 2 consecutive days (Day −1 & Day 0). Approximately one hour following the second dose of carboplatin, groups of mice were treated with PEGylated TPO Compound No. 1 (100 μg/kg) or vehicle (sterile saline, SS, preservative-free 0.9% sodium chloride) by IV (bolus) injection as delineated in Table 5.
On Day 15, the mice in all treatment groups were euthanised using CO2-asphyxiation and exsanguinations via cardiac puncture. The blood samples were transferred to separate EDTA (lavender-top) microtainers for hematologic evaluation. In addition, several organs (including the brains) of control mice and mice treated with 2×70 mg/kg carboplatin without and with co-treatment with PEGylated TPO Compound No. 1 were isolated and processed for histological examination. Sections of these tissues were processed immunohistochemically for fibrinogen/fibrin.

“Methoxypolyethyleneglycol20000-propionyl-L-Isoleucyl-L-Glutamyl-Glycyl-L-Prolyl-L-Threonyl-L-Leucyl-L-Arginyl-L-Glutaminyl-L-2-Naphthylalanyl-L-Leucyl-L-Alanyl-L-Alanyl-L-Arginyl-Sarcosyl-Ne-(methoxypolyethyleneglycol20000-propionyl-L-Isoleucyl-L-Glutamyl-Glycyl-L-Prolyl-L-Threonyl-L-Leucyl-L-Arginyl-L-Glutaminyl-L-2-Naphthylalanyl-L-Leucyl-L-Alanyl-L-Alanyl-L-Arginyl-Sarcosyl-)-Lysinamide ({methoxypolyethyleneglycol20000‑propionyl}-IEGPTLRQ[2Nal]LAAR[Sar]K[Sar]RAAL[2Nal]QRLTPGEI; also: dimer: positions 16-29 are the second 14-mer written in reverse, its Sar C-terminus joined to the K15 epsilon-amine, K15 is C-terminal lysinamide (NH2), methoxypolyethyleneglycol20000-propionyl also on Ile29 N-terminus) [PEGylated TPO Compound No. 1]”: the “carboplatin-associated decreases in RBC count and hematocrit” value with carboplatin treated mice [1] (300, 1000, 3000 μg/kg iv one day after carboplatin, no statistical evaluation) was “inhibited”. The “carboplatin-induced decrease in hemoglobin levels” value was “inhibited” in the series with carboplatin treated mice [1] (all doses (300, 1000, 3000 μg/kg iv, one day after carboplatin 2×60 mg/kg ip), by Day 11) and “totally inhibited” in the series on carboplatin-treated mice (all doses (30, 100, 300 μg/kg iv, about one hour after second carboplatin dose), Day 12). In addition, the “body weight after carboplatin” value in the series with carboplatin treated mice [1] (all doses tested, 11-Day study period) was “enhanced the recovery of the lost body weight”. In addition, the “altered appearance and behavior (hunched, flaccid, soiled anogenital areas)” value in the series on carboplatin treated mice [1] (appeared to be dose-dependent) was “decreased the onset, frequency and severity of these signs”. Moreover, the “carboplatin-induced changes in erythrocyte parameters” value in the series with carboplatin treated mice [2] (300 μg/kg iv on Day 0 (only), seven days prior to carboplatin) is listed as “failed to affect carboplatin-induced changes”. In addition, the “carboplatin-induced decreases in hemoglobin levels, RBC counts and hematocrits” value in the series with carboplatin treated mice [2] (300 μg/kg iv on Day 8 (1 hour after second carboplatin) without or with additional dose on Day 0) is “prevented”. For the same molecule, in the series on carboplatin treated mice [2] (carboplatin plus various co-treatments, 300 μg/kg iv, no statistical analysis), the “body weight between Days 7 and 26” value is “prevented this weight loss”. In the series with carboplatin treated mice [2] (treatment on Day 8 without or with additional treatment on Day 0), the “onset of signs (hunched, unkempt)” value is listed as “appeared to delay the onset of these signs”. The “severity and duration of signs (hunched, unkempt)” value in the series on carboplatin treated mice [2] (treatment on Days 0 and 8) is “decreased the severity and duration”. For the same molecule, the “carboplatin-induced decreases in RBC counts and hematocrit” value with carboplatin-treated mice (30, 100, 300 μg/kg iv) is on record as “effectively inhibited”. The “weight loss or recovery” value in the series with carboplatin-treated mice (30, 100, 300 μg/kg iv, 13-Day study period) is listed as “did not appear to affect weight loss or recovery”. In the series on carboplatin-treated mice (all doses, Day 12), the “anemia induced by carboplatin” value is “completely prevent the anemia”. Besides, the “altered appearance and behavior (hunched, unkempt, soft stool)” value with carboplatin-treated mice (appeared to be dose-dependent) was “decreased the onset, frequency and severity of these signs”. Moreover, in the series on carboplatin treated mice [3] (100 μg/kg iv about one hour after second carboplatin dose, Day 15), the “carboplatin-induced decreases in platelet and RBC counts” value was “totally inhibited”. Besides, the “microthrombotic events in brain sections, entire dose group” value in the series on carboplatin treated mice [3] (2×70 mg/kg carboplatin plus 100 μg/kg iv) is “single”. The “fibrinogen/fibrin staining of small vessels in brain sections” value in the series with carboplatin treated mice [3] (2×70 mg/kg carboplatin plus 100 μg/kg iv, Day 15, 70 mg/kg) was “appeared normal or exhibited fibrinogen/fibrin staining that was only slightly darker than the control group; also recorded: reduces fibrinogen deposition and blood clots”. Also, the thrombocytopenia or anemia result with carboplatin treated mice [3] (2×80 mg/kg carboplatin plus 100 μg/kg iv, Day 15) is recorded as “did not exhibit thrombocytopenia or anemia”. Further, the survival entry with carboplatin treated mice [3] (2×80 mg/kg carboplatin plus 100 μg/kg iv, all of the mice) is on record as “survived until the scheduled study termination”.
In the case of `N.N.O=C([O-])C1(C(=O)[O-])CCC1.[Pt+2]` [carboplatin, reference compound], the “decrease in hemoglobin levels” value with carboplatin treated mice [1] (carboplatin alone 2×60 mg/kg ip, by Day 11) is given as about 20%; in the series with carboplatin-treated mice (carboplatin alone 2×60 mg/kg ip, by Day 12), “greater than 25%”. Besides, in the series with carboplatin treated mice [2] (carboplatin alone 2×60 mg/kg ip, Days 18 and 22 compared to control groups), the “decreases in hemoglobin levels, RBC counts and hematocrits” value is listed as “approx. 18%”. Further, the “body weight loss (average)” value in the series with carboplatin treated mice [2] (carboplatin alone, between Days 7 and 26) was “approximately 4%”. Further, the mortality result in the series on carboplatin treated mice [3] (2×80 mg/kg carboplatin (alone), all of the mice, prior to study termination) is “either found dead or were euthanized (moribund)”.
